Experimental data published in patent US20090181115A1, “Method of Screening for Compounds That Alter Skin and/or Hair Pigmentation” (priority 2006, published 2009).
“Also recorded” adds a separate entry of the source.

Tests used:
[1] = test system: NCKX5; assay: Western blot of NCKX5 protein 5 days after siRNA mediated knockdown; assay type: cell-based, human; settings: 5 days after siRNA knockdown, rabbit anti-NCKX5 pAb (anti C-terminus peptide)
Method: Using western blot we have investigated NCKX5 protein expression 5 days after siRNA mediated knockdown (all 5 siRNA duplexes and controls were tested). Western blot was also used to evaluate the expression and processing (maturation) of tyrosinase (tyr) in the same samples. SDS-PAGE (10% PA for NCKX5, 4-12% for tyr, 5 μg protein/lane). A) Western blot for NCKX5: Detection via rabbit anti-NCKX5 pAb (anti C-terminus peptide). B) Western blot for tyr, via goat pAb (Santa Cruz). 1=No treatment, 2=scrambled siRNA control, 3-7=siRNA's 185, 260, 301, 492, 1110. […] These bands are absent in the samples where SLC24A5-specific duplexes were used (lanes 3-7). It is possible that the doublet represents the presence of alternate SLC24A5 splice variants.
(§1) • Cultured Cells (trypsinised off of 6-well culture plates) were lysed on ice for 20 minutes in 1.5 ml eppendorfs using 100 μl per sample of 1% triton X-100 in dPBS containing protease inhibitor cocktail (Sigma-Aldrich, Poole, UK). Cell extracts were centrifuged (10 minutes at 13000 g) to separate melanin and cell debris from the solubilised protein. The protein concentration of each supernatant fraction was determined by BCA assay as described in A).
• 20 μg protein (as determined by BCA assay) was reconstituted into 20 μl of 1×LDS loading buffer (Invitrogen Ltd, Paisley, UK) containing 1× reducing agent (Invitrogen Ltd, Paisley, UK), heated to 40° C. for 30 minutes and loaded onto 10% Novex bis-tris acrylamide gels with 1×MOPS running buffer (Invitrogen Ltd, Paisley, UK). Kaleidoscope molecular weight markers (Bio-Rad Laboratories Ltd, Hemel Hempstead, UK) were run alongside samples for size determinations. Protein was transferred onto PVDF membrane by electrophoresis transfer, using a Bio-Rad mini-cell II trans-blotter and 1× Tris-Glycine transfer buffer (Invitrogen Ltd, Paisley, UK)+15% v/v methanol (100V for 1 hour).
• Membranes containing transferred protein were “blocked” using 2% w/v skimmed milk protein (SMP) in PBS+0.05% tween20 (PBST) for 1 hour with gentle agitation. Peptide affinity purified rabbit polyclonal antibody (raised using a peptide equivalent to the C-terminus of NCKX5-GNNKIRGCGG) was diluted to 0.5 μg/ml using 2% SMP in PBST. The diluted antibody was incubated with the membrane for 2 hours at room temperature. The membrane was then rinsed with PBST (4×5 minutes washes). Peroxidase conjugated anti-rabbit IgG (Jackson ImmunoResearch Laboratories Inc. PA, USA) was diluted 1/4000 using 2% SMP in PBST and was incubated with the membranes for 1 hour. Finally, membranes were washed using 6×5 minute rinses with PBST. SuperSignal Western pico (Perbio Science UK Ltd, Northumberland, UK) chemiluminescence detection reagents was used to probe the membranes for secondary antibody binding as per the manufacturers instructions. Visualisation of results was via a Chemidoc XRS imaging system (Bio-Rad Laboratories Ltd, Hemel Hempstead, UK).

[2] = test system: lightly pigmented human melanocytes; assay: Quantitative assessment of melanogenesis (melanin content) after siRNA knockdown in human melanocytes; assay type: cell-based; settings: replicated x3
Method: A decrease in post-treatment melanin content is noted for duplex (492) in lightly pigmented human melanocytes (replicated ×3).
as §1
• To each pellet of melanin+cell debris obtained in section 2), 0.5 ml of diethyl ether:ethanol (1:1 ratio) was added. Eppendorfs were vortexed vigorously for 30 seconds and centrifuged at 13000 g for 5 minutes. The ether layer was carefully removed to waste and a further 0.5 ml was added. The tubes were agitated and centrifuged as before. The liquid phase was again removed and the melanin pellets were allowed to air dry at room temperature for 10 minutes. […] OD^45 0 of each sample was determined and the melanin content of each fraction was calculated from a synthetic melanin standard curve, prepared as described above. In treatment comparisons, results were expressed as μg melanin per μg protein. […]

[3] = test system: B16 cells; assay: Melanin synthesis in B16 cells after SLC24A5 siRNA knockdown (OD450 of media); assay type: cell-based, mouse; settings: transfected 8 hours, cultured a further 3 days
Method: Cells were transfected (lipofectamine 2000) with siRNA duplexes or controls for 8 hours. Cells were cultured for a further 3 days prior to analyses.
(§2) Media was removed and melanin quantified by OD450. Cell viability measured using Wst1 proliferation reagent (Roche) before lysis using 1% triton ×100. Protein content of each well was determined by BCA assay.
Experiment (each in quadruplicate) reproduced x3 consecutively.
24 h prior to transfection, B16 cells were plated at 25,000 cells/well in a 48-well plate. Cells in quadruplicate wells were transfected with 2 μg/ml Lipofectamine 2000 and 50 nM Stealth™ RNAi duplexes targeting SLC24A5 or scrambled controls (from Invitrogen). […]
Cells were incubated with transfection reagents for 6-8 h, reagents were then removed and replaced with phenol red-free DMEM supplemented with 10% FCS and 4 mM L-glutamine for 72 h. At 72 h, cells were taken for viability and total protein determination and supernatants analysed for melanin production.
• The phenol free DMEM culture media was removed from each well for quantification of secreted melanin. […] Soluble fractions were kept for protein quantification.
• 1 mg synthetic melanin (Sigma-Aldrich, Poole, UK) was dissolved in 50 μl of 100% DMSO. […] This standard was serially diluted (5-fold) in media+FCS to give a standard curve for quantification of melanin in sample preparations (range from 1000 to 8 μg/ml). […]

[4] = test system: B16 cells; assay: Cell viability of B16 cells after siRNA treatment (Wst1 assay); assay type: cell-based, mouse; settings: end of each experiment
Method: as §2
Cell viability and protein content determination post-treatment could help to identify the manner in which SLC24A5 modulates pigment production in B16 melanocytes. […] This conclusion is supported by data obtained for protein content.
• The phenol free DMEM culture media was removed from each well for quantification of secreted melanin. Each well of the culture plate was then rinsed once with Dulbeccos phosphate buffered saline (dPBS) (Sigma-Aldrich, Poole, UK) and replaced with 0.5 ml Wst1 reagent (diluted 1/10 in media) (Roche Diagnostics Ltd, West Sussex, UK). The culture plate was incubated at 37° C., 5% CO2 for 30 minutes. The Wst1 reagent was removed from each well for determination of cell viability and each well was again rinsed with dPBS. 200 μl of 1% w/v Triton X-100 (Sigma-Aldrich, Poole, UK) in dPBS was added to each well of the culture plate. The plate was incubated for 20 minutes at 4° C. on an orbital shaker. Supernatant from each well was removed and centrifuged at 13000 g for 5 minutes to remove cell debris. Soluble fractions were kept for protein quantification.
• The OD^450 of 100 μl fractions (measured in duplicate) of post-incubation Wst1 reagent was measured. […]

| Substance | NCKX5 bands of approx. 42 and 44 KDa on western blot [1] | further results |
| --- | --- | --- |
| duplex 260: Stealth siRNA duplex against human SLC24A5, exon 2; 5′ GAGCGCAGAGATGGAGGCATCATAA 3′ (antisense TTATGATGCCTCCATCTCTGCGCTC; Stealth chemically modified siRNA duplex, pattern not given here) | absent |  |
| duplex 185: Stealth siRNA duplex against human SLC24A5, exon 1 & 2 boundary; 5′ AGGGCCACAGGAAATAGCACCCAAT 3′ (antisense ATTGGGTGCTATTTCCTGTGGCCCT; Stealth chemically modified siRNA duplex, pattern not given here) | absent |  |
| duplex 492: Stealth siRNA duplex against human SLC24A5, exon 3 & 4 boundary; 5′ GCACCATCCTTGGATCTGCAATTTA 3′ (antisense TAAATTGCAGATCCAAGGATGGTGC; Stealth chemically modified siRNA duplex, pattern not given here) | absent | post-treatment melanin content [2]: decrease |
| duplex 567: Stealth RNAi duplex targeting murine SLC24A5; sense 5′-CCUCUUCCGAGACUGUGCAGUGUAU-3′ (antisense GGAGAAGGCUCUGACACGUCACAUA; Stealth chemically modified RNAi duplex, pattern not given here; one strand is listed 3' to 5') |  | melanin synthesis / pigment production [3]: visibly decreased; cell viability / toxicity [4]: significant toxicity |
| duplex 762: Stealth RNAi duplex targeting murine SLC24A5; sense 5′-CAGAGCUAUGGAGGAGAGAAUUGAA-3′ (antisense GUCUCGAUACCUCCUCUCUUAACUU; Stealth chemically modified RNAi duplex, pattern not given here; one strand is listed 3' to 5') |  | melanin synthesis / pigment production ([3]; listed as 762): visibly decreased; also recorded: reduce pigment production; cell viability / toxicity [4]: without affecting viability |
| duplex 301: Stealth siRNA duplex against human SLC24A5, exon 2; 5′ CGTTTACATGTTCATGGCCATATCT 3′ (antisense AGATATGGCCATGAACATGTAAACG; Stealth chemically modified siRNA duplex, pattern not given here) | absent |  |
| duplex 1110: Stealth siRNA duplex against human SLC24A5, exon 7; 5′ CCGCATTTACATATATCCTGGTTTG 3′ (antisense CAAACCAGGATATATGTAAATGCGG; Stealth chemically modified siRNA duplex, pattern not given here) | absent |  |
